According to patent publication US20140296164A1, “Compositions and methods of use for cell targeted inhibitors of the Cystic Fibrosis transmembrane regulator associated ligand” (CALISTA THERAPEUTICS, INC., priority 2013, published 2014):
Entries after “also recorded” stand apart in the source; their conditions may differ. No end group written: not given here.

How the values were obtained:
deltaF508-CFTR [1] = test: CFTR agonist evoked short circuit (ISC) current, Ussing epithelial voltage clamp; assay type: cell-based, human; details: for summed ISC currents compared with Vehicle treatment: apical, one day at 27° C., CFFT006F cells, Dunnett's test
Source text: To test for bioeffectiveness, for our exemplary invention to stabilize CFTR, we measured the chloride transport function homozygous deltaF508-CFTR cystic fibrosis human bronchial epithelial cells grown and differentiated on Snapwell™ filter inserts as CFTR agonist evoked short circuit (ISC) current. The ISC was the output of an Ussing epithelial voltage clamp apparatus after amiloride block of sodium current through the epithelial sodium channel (ENaC). ENaC current was monitored as the amiloride sensitive current component of the ISC. The objective of this study was to measure the ability of various compounds, including but limited to CT002, CT008, CT003, CT004, CT005, CT006, CT007, and AT0011 (peptide control), to restore function to defective deltaF508-CFTR in CFhBE cell monolayers (epithelia) after a one day incubation period on the apical surface of the epithelia. See FIG. 4 for sequences and ID numbers.
(§1) CT003, CT004, CT005, CT006, CT007, and AT0011 were combined with the known corrector VX-809. CT002 (WQVTRV) was incubated with 10 μL of the cell permeability enhancing reagent BioPORTER™. Statistical comparisons were made using Dunnett's test and Student's t-test with significance evaluated at P<0.05. The ISC current polarity convention used here records apical to basolateral sodium current and basolateral to apical chloride current as negative.
Referring now to the drawings, a first exemplary embodiment is illustrated and generally indicated in FIGS. 1, 2 and 3, which is the measurement of the chloride transport function of homozygous deltaF508-CFTR cystic fibrosis human bronchial epithelial cells grown and differentiated on Snapwell™ filter inserts as CFTR agonist evoked short circuit (ISC) current. The ISC was the output of an Ussing epithelial voltage clamp apparatus after amiloride block of sodium current through the epithelial sodium channel (ENaC). ENaC current was monitored as the amiloride sensitive current component of the ISC. The objective of this study was to measure the ability of candidate Test Articles and controls (CT002 (WQVTRV+BIOPORTER), CT008 (WQVTRV alone), CT003, CT004, CT005, CT006, CT007, and AT0011 control) to restore function to defective deltaF508-CFTR in CFhBE cell monolayers (epithelia) after a one day incubation period on the apical surface of the epithelia. These peptide compounds differed in their amino acid sequence to optimize solubility, intracellular permeability, stability and toxicity (CT003-CT007 shown here). The control peptides were non-optimized sequences (CT002 and CT008) and an off-target peptide control (AT0011).
as §1, with “VX-809 and” for “VX-809.”, “CT002” for “CT002 (WQVTRV)”, “used” for “used here”
All incubations were performed at 27±0.5° C. Test Articles were applied at their final concentrations to the apical surface of the cellular monolayers in 200 μL of Opti-MEM Reduced Serum Medium without addition of serum. […] Test Article incubations were approximately 24 hours. 150 μL of cycloheximide (20 μg/mL) was applied to the apical surface of the epithelia for the final 2 hours of peptide treatment, total volume 350 μL. Cycloheximide prevented new protein synthesis that might be otherwise conflated with test article efficacy. This incubation protocol mimics the dilution and clearance effect that will be encountered by topical delivery to the lungs. Test articles are applied at t=0 h, 10 μM in 200 μL, to the apical surface. 2000 μL of basolateral medium provides an immediate dilution effect (test article: 0.91 μM), then at t=22 h, a further […] of cycloheximide containing solution is further added, (test article: 0.85 μM). […]

deltaF508-CFTR [2] = details: cited from earlier work
[3] = system: epithelial sodium channel (ENaC); test: Amiloride sensitive sodium current component of the ISC, Ussing assay; assay type: cell-based, human; details: Test Article 10 uM + VX-809 1 uM, Student's test
Source text: To test for bioeffectiveness, for our exemplary invention to stabilize CFTR, we measured the chloride transport function homozygous deltaF508-CFTR cystic fibrosis human bronchial epithelial cells grown and differentiated on Snapwell™ filter inserts as CFTR agonist evoked short circuit (ISC) current. The ISC was the output of an Ussing epithelial voltage clamp apparatus after amiloride block of sodium current through the epithelial sodium channel (ENaC). ENaC current was monitored as the amiloride sensitive current component of the ISC. […]
Referring now to the drawings, a first exemplary embodiment is illustrated and generally indicated in FIGS. 1, 2 and 3, which is the measurement of the chloride transport function of homozygous deltaF508-CFTR cystic fibrosis human bronchial epithelial cells grown and differentiated on Snapwell™ filter inserts as CFTR agonist evoked short circuit (ISC) current. […] ENaC current was monitored as the amiloride sensitive current component of the ISC. […]
Ussing Assay: All Ussing assays were performed at 27±0.5° C. and lasted for approximately 1 hour 40 minutes. The temperature was monitored throughout the experiment using a thermistor probe connected to the data acquisition system and inserted into the bath solution of one chamber. […]

[4] = Solubility of peptide sequences; assay type: physicochemical
[5] = Test Article 10 uM + VX-809 1 uM, Student's t-test

With Cc1ccc(NC(=O)C2(c3ccc4c(c3)OC(F)(F)O4)CC2)nc1-c1cccc(C(=O)O)c1 [VX-809, reference compound] the “summed ISC currents compared with Vehicle treatment” value (deltaF508-CFTR [1]; VX-809 1 μM alone) was “significantly above Vehicle treatment” and the “summed ISC currents compared with expected level” value (deltaF508-CFTR [1]; VX-809 1 μM, apical incubation only, not in basolateral media) was “less than the expected level”.

For ANSRWPTSII, the “function without BIOPORTER” value (deltaF508-CFTR [2]) is given as “neither sequence functions”.

With “Acety-YGRKKRRQRRR-glycoyl-WQVTRV-amide (Ac-YGRKKRRQRRR; not fully specified (C-terminus)) [CT007]” the “lower concentration needed versus prior sequences with BIOPORTER” value (deltaF508-CFTR [1]; 10 μM CT007 vs 500 μM WQVTRV) was greater than 50 times, the “improvement in reported efficacy versus WQVTRV and ANSRWPTSII with BIOPORTER” value (deltaF508-CFTR [1]; 10 uM vs 500 μM, at least) was “fifty-fold” and the “additive efficacy to VX-809” value (deltaF508-CFTR [1]; CT007 10 uM + VX-809 1 uM, CF bronchial epithelium, n=4) was 36%. The “response to CFTRinh-172 compared with VX-809 1 uM” value (deltaF508-CFTR [1]; [5]) was “significantly increased”, the “summed ISC currents (CFTR chloride current restoration) compared with VX-809 1 μM treatment” value (deltaF508-CFTR [1]; [5]) was “significantly greater; also recorded: significantly above VX-809 1 μM treatment” and the “summed ISC currents compared with Vehicle treatment” value (deltaF508-CFTR [1]; Test Article 10 uM + VX-809 1 uM) was “significantly above Vehicle treatment”. For the same compound, the “duration of therapeutic drug action” value (deltaF508-CFTR [1]; after transient topical apical dosing, test article removed before Ussing assay) was “at least 26 hours” and the “amiloride sensitive sodium current generated by ENaC compared to VX-809 alone” value [3] was “significantly increased”.

In the case of WQVTRV [CT008, WQVTRV], the “solubility at the effective concentration” value ([4]; 500 μM) is reported as “largely insoluble” and the solubility in water ([4]; water / aqueous fluids) is reported as “insoluble in water”.
